The results in this text go back to patent US7144880B2, “Compositions relating to novel compounds and targets thereof” (Regents of the University of Michigan, priority 2003, dated 2006).

One series deals with T1, human OSCP (Homo sapiens, UniProt P48047).
T1 construct: made in house; host or cells: E. coli
Nature of the series: Quenching of intrinsic OSCP fluorescence on titration (binding isotherm). As to conditions: human OSCP overexpressed in E. coli, fluorescence quenching. From the text: Oligomycin is a macrolide natural product that binds to the mitochondrial F1F0-ATPase, induces a state 3 to 4 transition, and as a result, generates ROS (e.g., O2^−). In preferred embodiments, the present invention binds the OSCP component of the mitochondrial F1F0-ATPase. In certain embodiments, screening assays of the present invention permit detection of binding partners of the OSCP. OSCP is an intrinsically fluorescent protein. In certain embodiments, titrating a solution of test compounds of the present invention into an E. Coli sample overexpressed with OSCP results in quenching of the intrinsic OSCP fluorescence. In other embodiments, fluorescent or radioactive test compounds can be used in direct binding assays. In other embodiments, competition binding experiments can be conducted. In this type of assay, test compounds are assessed for their ability to compete with Bz-423 for binding to the OSCP. In some embodiments, the compounds of the present invention cause a reduced increase in cellular ROS levels and reduced apoptosis in cells through regulation of the OSCP gene (e.g., altering expression of the OSCP gene). In further embodiments, the present invention functions by altering the molecular motions of the ATPase motor.
To determine if Bz-423 indeed binds to the OSCP and the affinity of the interaction, human OSCP was overexpressed in E. coli. […]

Series [1] has as its system malignant B cell line Raji. Briefly: Antiproliferation, 72 h, media with 10% FBS. The format is cell-based. The following applies: read-out: ED50 (μM) for antiproliferation. Here is the method:
(§1) Like most 1,4-benzodiazepines, Bz-423 binds strongly to bovine serum albumin (BSA), which reduces the effective concentration of drug free in solution. For example, in tissue culture media containing 10% (v/v) fetal bovine serum (FBS), ca. 99% of the drug is bound to BSA. Therefore, cell culture cytotoxicity assays are conducted in media with 2% FBS to reduce binding to BSA and increase the free [Bz-423]. Under these conditions, the dose response-curve is quite sharp such that there is a limited concentration range at which Bz-423 is only partly effective. Since some benzodiazepines are known to have anti-proliferative properties, the effect of Bz-423 at concentrations <ED50 were carefully analyzed and observed that in addition to inducing apoptosis, Bz-423 prevented cell growth after 3 d in culture. In these low serum conditions, the cytotoxic and anti-proliferative effects overlapped making it difficult to study each effect independently. […] While higher amounts of drug may also block proliferation, it caused apoptosis well before the effects on proliferation could be observed.
(§2) To confirm the decrease in cell number relative to control cells after 3 d of treatment is due to decreased proliferation and not cell death balanced by proliferation, in addition to cell counting, cell divisions were studied. PKH-67 is a fluorescent probe that binds irreversibly to cell membranes and upon cell division is partitioned equally between the daughter cells, making it possible to quantify cell division by flow cytometry. Ramos cells stained with PKH67 and treated with Bz-423 had fewer cell divisions at sub-cytotoxic concentrations which confirmed that the decrease in cell number was due to anti-proliferative affects and not cell death. To determine if Bz-423 induced anti-proliferation was specific to Ramos cells, cell counting and cell cycle experiments were done in other B cell lines and cell lines derived from solid tumors.

The subject of series [2] is neuroblastoma cell line IMR-32. Nature of the series: Antiproliferation, 72 h, media with 10% FBS. It is filed as cell-based. As to conditions: IMR-32, 72 h, read-out: ED50 (μM) for antiproliferation. The procedure: as §1, §2
The test system of series [3] is ovarian cells with null p53 (SKOV3). Briefly: Antiproliferation, 72 h, media with 10% FBS. The format is cell-based. The following applies: SKOV3, 72 h, read-out: ED50 (μM) for antiproliferation. Here is the method: as §1, §2
For series [4], the system named is neuroblastoma cell line SHEP-1. Briefly: Antiproliferation, 72 h, media with 10% FBS. It is filed as cell-based. The following applies: SHEP-1, 72 h, read-out: ED50 (μM) for antiproliferation. Here is the method:
as §1, §2

Series [5] relates to neuroblastoma cell line Lan-1. Nature of the series: Antiproliferation, 72 h, media with 10% FBS. The format is cell-based. The following applies: Lan-1, 72 h, read-out: ED50 (μM) for antiproliferation. Here is the method:
as §1, §2

Series [6] has as its system malignant B cell line CA46. Briefly: Antiproliferation, 72 h, media with 10% FBS. The format is cell-based. The following applies: CA46, 72 h, read-out: ED50 (μM) for antiproliferation. The procedure: as §1, §2
Series [7] deals with central benzodiazepine receptor. Nature of the series: Binding to the central benzodiazepine receptor.
The target in series [8] is T2, bovine serum albumin (BSA) (Bos taurus, UniProt P02769).
T2 construct: from tissue; host or cells: fetal bovine serum (10% v/v) in tissue culture media
Briefly: Binding to serum albumin in tissue culture media. The format is in vitro ADME. The following applies: tissue culture media containing 10% (v/v) FBS. The procedure: as §1

In series [9] the target is peripheral benzodiazepine receptor (PBR) (Homo sapiens, UniProt P30536). Briefly: Binding to the peripheral benzodiazepine receptor.
The test system of the next series is B cells. Nature of the series: Collapse of mitochondrial ΔΨm detected with DiOC6(3). The format is cell-based. As to conditions: by 5 hours. Here is the method:
To detect O2^−, cells are incubated with DHE (10 μM) for 30 min at 37° C. and are analyzed by flow cytometry to measure ethidium fluorescence. Flow analysis of mitochondrial transmembrane potential (ψm) is conducted by labeling cells with DiOC6(3) (20 nM) for 15 min at 37 degrees C. A positive control for disruption of ψm is established using carbonyl cyanide m-chlorophenylhydrazone (CCCP, 50 μM). Caspase activation assays are performed with FAM-VAD-fluoromethylketone. Processing of the substrate is evaluated by flow cytometry.
To characterize the death mechanism engaged by Bz-423, intracellular ROS, ΔΨm, cytochrome c release, caspase activation, and DNA fragmentation were measured over time (the results presented are for B cells but do characterize the response in many different cell types). The first event detected after exposure to Bz-423 is an increase in the fraction of cells that stain with dihyroethedium (DHE), a redox-sensitive agent that reacts specifically with O2^−.
Collapse of ΔΨm was detected using DiOC6(3), a mitochondria-selective potentiometric probe.

The subject of series [10] is Ramos clones transfected to overexpress Bcl-xL. Nature of the series: Antiproliferation, 72 h, media with 10% FBS. It is filed as cell-based, human. The following applies: Bcl-XL overexpressing Ramos, read-out: ED50 (μM) for antiproliferation. Here is the method: as §1, §2

Sequence of peripheral benzodiazepine receptor (PBR) (P30536 whole entry, species assumed): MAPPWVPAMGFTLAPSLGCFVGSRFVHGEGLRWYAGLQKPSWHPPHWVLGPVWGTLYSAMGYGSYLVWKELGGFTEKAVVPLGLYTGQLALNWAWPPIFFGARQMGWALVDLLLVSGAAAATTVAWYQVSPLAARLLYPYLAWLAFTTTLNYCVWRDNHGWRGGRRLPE
T2 sequence (P02769 25-607): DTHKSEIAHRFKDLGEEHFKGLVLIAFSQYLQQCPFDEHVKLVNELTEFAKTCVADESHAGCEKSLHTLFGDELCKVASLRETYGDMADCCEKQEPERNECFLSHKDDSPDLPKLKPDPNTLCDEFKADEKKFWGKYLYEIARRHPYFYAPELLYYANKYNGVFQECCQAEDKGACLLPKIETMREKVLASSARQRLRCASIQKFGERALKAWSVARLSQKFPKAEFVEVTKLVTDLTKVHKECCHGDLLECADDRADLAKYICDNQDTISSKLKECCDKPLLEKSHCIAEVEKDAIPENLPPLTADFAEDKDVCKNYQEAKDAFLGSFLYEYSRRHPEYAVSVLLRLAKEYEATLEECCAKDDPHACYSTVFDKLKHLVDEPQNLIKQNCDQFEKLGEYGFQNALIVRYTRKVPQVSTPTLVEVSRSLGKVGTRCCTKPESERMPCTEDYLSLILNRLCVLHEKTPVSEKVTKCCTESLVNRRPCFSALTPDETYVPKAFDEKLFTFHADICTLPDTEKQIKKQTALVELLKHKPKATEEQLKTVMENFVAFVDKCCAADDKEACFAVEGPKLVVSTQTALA
T1 sequence (P48047 24-213): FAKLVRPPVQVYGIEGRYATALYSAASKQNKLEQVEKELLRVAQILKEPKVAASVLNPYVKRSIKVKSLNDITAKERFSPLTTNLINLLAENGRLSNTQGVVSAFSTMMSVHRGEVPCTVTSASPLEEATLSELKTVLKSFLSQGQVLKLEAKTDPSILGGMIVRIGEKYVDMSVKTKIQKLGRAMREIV

On to `CN1C(=O)C(Cc2ccc3ccccc3c2)N=C(c2ccc(O)cc2)c2cc(Cl)ccc21` (stereo not drawn) [Bz-423], for which the results for the Kd (at human OSCP; in [9]) were 200 ± 40 nM and about 1000 nM, respectively. Also, the EC50 in series [1] is 12.9 µM; in [2] it was 18 µM; in [3], 18.2 µM; in series [4], 15.9 µM; in series [5] it was 13.7 µM; in series [6] it was 13.4 µM. Further, in series [10], the EC50 was 13.7 µM. Also, the “Binding to the central benzodiazepine receptor” value in [7] is “prevents binding”. The “Drug bound to BSA” value in series [8] was “ca. 99%”. In the series on B cells, the “Cells with collapse of ΔΨm” value is over 90%.
